Legend:
Test in all cases: Ambit kinase profiling, competition binding
[1] = biological target: T1, PDPK1 (Homo sapiens, UniProt O15530); conditions: compound concentration 10 uM, read-out: Percent Competition
T1 construct: purchased Ambit Biosciences (KINOMEscan)
From the text: (§1) Supplement pone.0044653.s004.xls, sheet "Compound 122" | column: Percent Competition

[2] = biological target: T2, SgK085 (Homo sapiens, UniProt Q86YV6); conditions: compound concentration 10 uM, read-out: Percent Competition
T2 construct: purchased Ambit Biosciences (KINOMEscan)
From the text: as §1

[3] = biological target: T3, PRKR (Homo sapiens, UniProt P19525); conditions: compound concentration 10 uM
T3 construct: purchased Ambit Biosciences (KINOMEscan)
From the text: as §1

[4] = biological target: T4, MET (Homo sapiens, UniProt P08581); conditions: compound concentration 10 uM
T4 construct: purchased Ambit Biosciences (KINOMEscan)
From the text: as §1

[5] = biological target: T5, ITK (Homo sapiens, UniProt Q08881); conditions: compound concentration 10 uM
T5 construct: purchased Ambit Biosciences (KINOMEscan)
From the text: as §1

[6] = biological target: T6, SIK2 (Homo sapiens, UniProt Q9H0K1); conditions: compound concentration 10 uM, read-out: Percent Competition
T6 construct: purchased Ambit Biosciences (KINOMEscan)
From the text: as §1

[7] = biological target: T7, RIOK2 (Homo sapiens, UniProt Q9BVS4); conditions: compound concentration 10 uM, read-out: Percent Competition
T7 construct: purchased Ambit Biosciences (KINOMEscan)
From the text: as §1

[8] = biological target: T8, MAPKAPK5 (Homo sapiens, UniProt Q8IW41); conditions: compound concentration 10 uM, read-out: Percent Competition
T8 construct: purchased Ambit Biosciences (KINOMEscan)
From the text: as §1

[9] = biological target: T9, TYK2(JH1domain-catalytic) (Homo sapiens, UniProt P29597); conditions: compound concentration 10 uM
T9 construct: TYK2(JH1domain-catalytic); purchased Ambit Biosciences (KINOMEscan)
From the text: as §1

[10] = biological target: T10, TEC (Homo sapiens, UniProt P42680); conditions: compound concentration 10 uM, read-out: Percent Competition
T10 construct: purchased Ambit Biosciences (KINOMEscan)
From the text: as §1

[11] = biological target: T11, ABL1(Y253F) (Homo sapiens, UniProt P00519, Y253F); conditions: compound concentration 10 uM, read-out: Percent Competition
T11 construct: purchased Ambit Biosciences (KINOMEscan)
From the text: as §1

[12] = biological target: T12, VEGFR2 (Homo sapiens, UniProt P35968); conditions: compound concentration 10 uM, read-out: Percent Competition
T12 construct: purchased Ambit Biosciences (KINOMEscan)
From the text: as §1

[13] = biological target: T13, INSR (Homo sapiens, UniProt P06213); conditions: compound concentration 10 uM, read-out: Percent Competition
T13 construct: purchased Ambit Biosciences (KINOMEscan)
From the text: as §1

[14] = biological target: T14, PIM1 (Homo sapiens, UniProt P11309); conditions: compound concentration 10 uM, read-out: Percent Competition
T14 construct: purchased Ambit Biosciences (KINOMEscan)
From the text: as §1

[15] = biological target: T15, IKK-epsilon (Homo sapiens, UniProt Q14164); conditions: compound concentration 10 uM, read-out: Percent Competition
T15 construct: purchased Ambit Biosciences (KINOMEscan)
From the text: as §1

[16] = biological target: T16, EPHA4 (Homo sapiens, UniProt P54764); conditions: compound concentration 10 uM, read-out: Percent Competition
T16 construct: purchased Ambit Biosciences (KINOMEscan)
From the text: as §1

[17] = biological target: T17, ZAK (Homo sapiens, UniProt Q9NYL2); conditions: compound concentration 10 uM, read-out: Percent Competition
T17 construct: purchased Ambit Biosciences (KINOMEscan)
From the text: as §1

[18] = biological target: T18, WEE2 (Homo sapiens, UniProt P0C1S8); conditions: compound concentration 10 uM, read-out: Percent Competition
T18 construct: purchased Ambit Biosciences (KINOMEscan)
From the text: as §1

[19] = biological target: T19, ABL1 (Homo sapiens, UniProt P00519); conditions: compound concentration 10 uM, read-out: Percent Competition
T19 construct: purchased Ambit Biosciences (KINOMEscan)
From the text: as §1

[20] = biological target: T20, ZAP70 (Homo sapiens, UniProt P43403); conditions: compound concentration 10 uM, read-out: Percent Competition
T20 construct: purchased Ambit Biosciences (KINOMEscan)
From the text: as §1

[21] = biological target: T21, DRAK1 (Homo sapiens, UniProt Q9UEE5); conditions: compound concentration 10 uM, read-out: Percent Competition
T21 construct: purchased Ambit Biosciences (KINOMEscan)
From the text: as §1

[22] = biological target: T22, SRPK2 (Homo sapiens, UniProt P78362); conditions: compound concentration 10 uM, read-out: Percent Competition
T22 construct: purchased Ambit Biosciences (KINOMEscan)
From the text: as §1

[23] = biological target: T23, CHEK2 (Homo sapiens, UniProt O96017); conditions: compound concentration 10 uM, read-out: Percent Competition
T23 construct: purchased Ambit Biosciences (KINOMEscan)
From the text: as §1

[24] = biological target: T24, BMX (Homo sapiens, UniProt P51813); conditions: compound concentration 10 uM, read-out: Percent Competition
T24 construct: purchased Ambit Biosciences (KINOMEscan)
From the text: as §1

[25] = biological target: T25, WEE1 (Homo sapiens, UniProt P30291); conditions: compound concentration 10 uM, read-out: Percent Competition
T25 construct: purchased Ambit Biosciences (KINOMEscan)
From the text: as §1

[26] = biological target: T26, MYLK2 (Homo sapiens, UniProt Q9H1R3); conditions: compound concentration 10 uM, read-out: Percent Competition
T26 construct: purchased Ambit Biosciences (KINOMEscan)
From the text: as §1

[27] = biological target: T27, ABL1(F317L) (Homo sapiens, UniProt P00519, F317L); conditions: compound concentration 10 uM, read-out: Percent Competition
T27 construct: purchased Ambit Biosciences (KINOMEscan)
From the text: as §1

[28] = biological target: T28, MKNK1 (Homo sapiens, UniProt Q9BUB5); conditions: compound concentration 10 uM, read-out: Percent Competition
T28 construct: purchased Ambit Biosciences (KINOMEscan)
From the text: as §1

[29] = biological target: T29, MELK (Homo sapiens, UniProt Q14680); conditions: compound concentration 10 uM, read-out: Percent Competition
T29 construct: purchased Ambit Biosciences (KINOMEscan)
From the text: as §1

[30] = biological target: T30, NEK1 (Homo sapiens, UniProt Q96PY6); conditions: compound concentration 10 uM, read-out: Percent Competition
T30 construct: purchased Ambit Biosciences (KINOMEscan)
From the text: as §1

[31] = biological target: T31, KIT(D816V) (Homo sapiens, UniProt P10721, D816V); conditions: compound concentration 10 uM, read-out: Percent Competition
T31 construct: purchased Ambit Biosciences (KINOMEscan)
From the text: as §1

[32] = biological target: T32, ABL1(Q252H) (Homo sapiens, UniProt P00519, Q252H); conditions: compound concentration 10 uM, read-out: Percent Competition
T32 construct: purchased Ambit Biosciences (KINOMEscan)
From the text: as §1

[33] = biological target: T33, MLCK (Homo sapiens, UniProt Q32MK0); conditions: compound concentration 10 uM, read-out: Percent Competition
T33 construct: purchased Ambit Biosciences (KINOMEscan)
From the text: as §1

[34] = biological target: T34, FLT3(D835H) (Homo sapiens, UniProt P36888, D835H); conditions: compound concentration 10 uM, read-out: Percent Competition
T34 construct: purchased Ambit Biosciences (KINOMEscan)
From the text: as §1

[35] = biological target: T35, NEK5 (Homo sapiens, UniProt Q6P3R8); conditions: compound concentration 10 uM, read-out: Percent Competition
T35 construct: purchased Ambit Biosciences (KINOMEscan)
From the text: as §1

[36] = biological target: T36, TIE1 (Homo sapiens, UniProt P35590); conditions: compound concentration 10 uM, read-out: Percent Competition
T36 construct: purchased Ambit Biosciences (KINOMEscan)
From the text: as §1

[37] = biological target: T37, MARK1 (Homo sapiens, UniProt Q9P0L2); conditions: compound concentration 10 uM, read-out: Percent Competition
T37 construct: purchased Ambit Biosciences (KINOMEscan)
From the text: as §1

[38] = biological target: T38, FGFR1 (Homo sapiens, UniProt P11362); conditions: compound concentration 10 uM, read-out: Percent Competition
T38 construct: purchased Ambit Biosciences (KINOMEscan)
From the text: as §1

[39] = biological target: T39, DMPK (Homo sapiens, UniProt Q09013); conditions: compound concentration 10 uM, read-out: Percent Competition
T39 construct: purchased Ambit Biosciences (KINOMEscan)
From the text: as §1

[40] = biological target: T40, LOK (Homo sapiens, UniProt O94804); conditions: compound concentration 10 uM
T40 construct: purchased Ambit Biosciences (KINOMEscan)
From the text: as §1

[41] = biological target: T41, KIT (Homo sapiens, UniProt P10721); conditions: compound concentration 10 uM, read-out: Percent Competition
T41 construct: purchased Ambit Biosciences (KINOMEscan)
From the text: as §1

[42] = biological target: T42, PIK3CA (Homo sapiens, UniProt P42336); conditions: compound concentration 10 uM, read-out: Percent Competition
T42 construct: purchased Ambit Biosciences (KINOMEscan)
From the text: as §1

Fc1ccc(-c2c(-c3ccncc3)[nH]c3nccnc23)cc1 [RO1155697-000-005]
inhibition at 10 µM [1]: < 50%
inhibition at 10 µM [2]: < 50%
Percent Competition [3]: <50%
Percent Competition [4]: <50%
Percent Competition [5]: <50%
inhibition at 10 µM [6]: < 50%
inhibition at 10 µM [7]: < 50%
inhibition at 10 µM [8]: < 50%
Percent Competition [9]: <50%
inhibition at 10 µM [10]: < 50%
inhibition at 10 µM [11]: < 50%
inhibition at 10 µM [12]: < 50%
inhibition at 10 µM [13]: < 50%
inhibition at 10 µM [14]: < 50%
inhibition at 10 µM [15]: < 50%
inhibition at 10 µM [16]: < 50%
inhibition at 10 µM [17]: < 50%
inhibition at 10 µM [18]: < 50%
inhibition at 10 µM [19]: < 50%
inhibition at 10 µM [20]: < 50%
inhibition at 10 µM [21]: < 50%
inhibition at 10 µM [22]: < 50%
inhibition at 10 µM [23]: < 50%
inhibition at 10 µM [24]: < 50%
inhibition at 10 µM [25]: < 50%
inhibition at 10 µM [26]: < 50%
inhibition at 10 µM [27]: < 50%
inhibition at 10 µM [28]: < 50%
inhibition at 10 µM [29]: < 50%
inhibition at 10 µM [30]: < 50%
inhibition at 10 µM [31]: < 50%
inhibition at 10 µM [32]: < 50%
inhibition at 10 µM [33]: < 50%
inhibition at 10 µM [34]: < 50%
inhibition at 10 µM [35]: < 50%
inhibition at 10 µM [36]: < 50%
inhibition at 10 µM [37]: < 50%
inhibition at 10 µM [38]: < 50%
inhibition at 10 µM [39]: < 50%
Percent Competition [40]: <50%
inhibition at 10 µM [41]: < 50%
inhibition at 10 µM [42]: < 50%

Source: paper PMC3445516 (PLoS ONE, 2012)
